Measurements: patent US8597875B2, “Method for diagnosing liver toxicity with sex specific biomarkers” (BASF SE, priority 2008, dated 2013)

Columns and labels:
[1] = tested on: male rats; assay: Plasma metabolite profiling (GC-MS/LC-MS) for liver toxicity markers, 28-day gavage study, male rats; format: in vivo, rat
Experimental: (§1) A group of each 5 male and female rats was dosed once daily with the indicated compounds (see tables below) at 10 and 100 mg/kg body weight per gavage over 28 days. Additional groups of each 5 male and female animals served as controls. Before starting the treatment period, animals, which were 62-64 days old when supplied, were acclimatized to the housing and environmental conditions for 7 days. All animals of the animal population were kept under the same constant temperature (20-24±3° C.) and the same constant humidity (30-70%). Each animal of the animal population was kept in a separate cage. The animals of the animal population are fed ad libitum. The food to be used was be essentially free of chemical or microbial contaminants. Drinking water was also offered ad libitum. Accordingly, the water was be free of chemical and microbial contaminants as laid down in the European Drinking Water Directive 98/83/EG. The illumination period was 12 hours light followed by 12 hours darkness (12 hours light, from 6:00 to 18:00, and 12 hours darkness, from 18:00 to 6:00).
(§2) In the morning of day 7, 14, and 28, blood was taken from the retroorbital venous plexus from fasted anaesthetized animals. From each animal, 1 ml of blood was collected with EDTA as anticoagulant. The samples were be centrifuged for generation of plasma. All plasma samples were covered with a N2 atmosphere and then stored at −80° C. until analysis.
(§3) For mass spectrometry-based metabolite profiling analyses plasma samples were extracted and a polar and a non-polar fraction was obtained. For GC-MS analysis, the non-polar fraction was treated with methanol under acidic conditions to yield the fatty acid methyl esters. Both fractions were further derivatised with O-methyl-hydroxyamine hydrochloride and pyridine to convert Oxo-groups to O-methyloximes and subsequently with a silylating agent before analysis. In LC-MS analysis, both fractions were reconstituted in appropriate solvent mixtures. HPLC was performed by gradient elution on reversed phase separation columns. For mass spectrometric detection metanomics proprietary technology was applied which allows target and high sensitivity MRM (Multiple Reaction Monitoring) profiling in parallel to a full screen analysis.
(§4) Following comprehensive analytical validation steps, the data for each analyte were normalized against data from pool samples. These samples were run in parallel through the whole process to account for process variability. The significance of treatment group values specific for sex, dose group and metabolite was determined by comparing means of the treated groups to the means of the respective untreated control groups using WELCH-test. Normalized treatment group values and their significance were fed into a database for further statistics and data mining processes.
(§5) The changes of the group of plasma metabolites being indicative for liver toxicity after treatment of the rats are shown in the following tables: […]

[2] = tested on: female rats; assay: Plasma metabolite profiling (GC-MS/LC-MS) for liver toxicity markers, 28-day gavage study, female rats; format: in vivo, rat
Experimental: as §1, §2, §3, §4, §5

[3] = Table 3, male rats, mh7 (day 7)
[4] = Table 3, male rats, mh14 (day 14)
[5] = Table 4, female rats, fh7 (day 7)
[6] = Table 4, female rats, fh14 (day 14)
[7] = Table 4, female rats, fh28 (day 28)

## CC(=O)Nc1ccc(O)cc1 [N-Acetyl-p-Aminophenol]
[1]; [3]
  4-Hydroxyphenylpyruvic acid, change of plasma metabolite: 3.04
  18:1 Lyso PC, change of plasma metabolite: 1.02
  Glycerol-3-Phosphate, polar fraction, change of plasma metabolite: 1.41
  alpha-Tocopherol, change of plasma metabolite: 1.21
[1]; [4]
  4-Hydroxyphenylpyruvic acid, change of plasma metabolite: 4.89
  4-Hydroxysphinganine, change of plasma metabolite: 1.61
  18:1 Lyso PC, change of plasma metabolite: 1.16
  Glycerol-3-Phosphate, polar fraction, change of plasma metabolite: 1.54
  Phosphatidylcholine No 01, change of plasma metabolite: 1.21
[2]; [5]
  Behenic acid (C22:0), change of plasma metabolite: 1.11
  Coenzyme Q9, change of plasma metabolite: 2.21
  Eicosatrienoic acid No 01, change of plasma metabolite: 1.15
  Glycerol, lipid fraction, change of plasma metabolite: 1.54
  Glycerolphosphate, lipid fraction, change of plasma metabolite: 1.13
  Heptadecanoic acid (C17:0), change of plasma metabolite: 1.31
  Linoleic acid (C18:cis[9,12]2), change of plasma metabolite: 1.43
  Nervonic acid (C24:1), change of plasma metabolite: 1.19
  Palmitic acid (C16:0), change of plasma metabolite: 1.16
  Phosphatidylcholine No 01, change of plasma metabolite: 1.30
  Sphingolipids (5-Methoxysphingosine), change of plasma metabolite: 1.31
  Sphingolipids (erythro-Sphingosine), change of plasma metabolite: 1.11
[2]; [6]
  14-Methylhexadecanoic acid, change of plasma metabolite: 1.20
  Behenic acid (C22:0), change of plasma metabolite: 1.39
  Coenzyme Q9, change of plasma metabolite: 1.39
  DAG (C18:1, C18:2), change of plasma metabolite: 1.63
  Eicosatrienoic acid No 01, change of plasma metabolite: 1.91
  Glycerol, lipid fraction, change of plasma metabolite: 1.56
  Heptadecanoic acid (C17:0), change of plasma metabolite: 1.34
  Linoleic acid (C18:cis[9,12]2), change of plasma metabolite: 1.82
  Nervonic acid (C24:1), change of plasma metabolite: 1.35
  Palmitic acid (C16:0), change of plasma metabolite: 1.50
  Phosphatidylcholine No 01, change of plasma metabolite: 1.34
  Sphingolipids (5-Methoxysphingosine), change of plasma metabolite: 1.41
  Sphingolipids (erythro-Sphingosine), change of plasma metabolite: 1.29
  TAG No 01, change of plasma metabolite: 2.93
[2]; [7]
  14-Methylhexadecanoic acid, change of plasma metabolite: 1.68
  Coenzyme Q9, change of plasma metabolite: 1.19
  DAG (C18:1, C18:2), change of plasma metabolite: 1.86
  Eicosanoic acid (C20:0), change of plasma metabolite: 1.73
  Eicosatrienoic acid No 01, change of plasma metabolite: 2.08
  Glycerol, lipid fraction, change of plasma metabolite: 2.04
  Glycerolphosphate, lipid fraction, change of plasma metabolite: 1.82
  Heptadecanoic acid (C17:0), change of plasma metabolite: 1.64
  Linoleic acid (C18:cis[9,12]2), change of plasma metabolite: 2.68
  Palmitic acid (C16:0), change of plasma metabolite: 2.03
  TAG No 01, change of plasma metabolite: 3.85
[2]; Table 4, first listing (r8), female rats, fh7 (day 7)
  Glycerol-3-Phosphate, polar fraction, change of plasma metabolite: 1.68
[2]; Table 4, first listing (r8), female rats, fh14 (day 14)
  Glycerol-3-Phosphate, polar fraction, change of plasma metabolite: 1.18
[2]; Table 4, first listing (r10), female rats, fh7 (day 7)
  Glucose, change of plasma metabolite: 1.25
[2]; Table 4, first listing (r10), female rats, fh28 (day 28)
  Glucose, change of plasma metabolite: 1.17
[2]; Table 4, first listing (r14), female rats, fh28 (day 28)
  Cholesterol, change of plasma metabolite: 1.41
[2]; Table 4, second listing (r26), female rats, fh7 (day 7)
  Cholesterol, change of plasma metabolite: 1.21
[2]; Table 4, second listing (r26), female rats, fh14 (day 14)
  Cholesterol, change of plasma metabolite: 1.42
[2]; Table 4, second listing (r26), female rats, fh28 (day 28)
  Cholesterol, change of plasma metabolite: 1.74
[2]; Table 4, second listing (r27), female rats, fh28 (day 28)
  Glucose, change of plasma metabolite: 1.04
[2]; Table 4, second listing (r28), female rats, fh7 (day 7)
  Glycerol-3-Phosphate, polar fraction, change of plasma metabolite: 1.93
[2]; Table 4, second listing (r28), female rats, fh14 (day 14)
  Glycerol-3-Phosphate, polar fraction, change of plasma metabolite: 1.35
[2]; Table 4, second listing (r28), female rats, fh28 (day 28)
  Glycerol-3-Phosphate, polar fraction, change of plasma metabolite: 1.20

## C1CCOC1 [Tetrahydrofuran]
[1]; male rats, mh7 (day 7)
  1,2-Dioleoyl-sn-glycero-3-phosphatidyl-L-serine, change of plasma metabolite: 1.70
  4-Hydroxysphingosine, change of plasma metabolite: 2.67
  Arachidonic acid (C20:cis-[5,8,11,14]4), change of plasma metabolite: 1.71
  Behenic acid (C22:0), change of plasma metabolite: 1.35
  Ceramide (d18:1, C24:0), change of plasma metabolite: 1.37
  Ceramide (d18:1, C24:1), change of plasma metabolite: 1.53
  Cholesterol, change of plasma metabolite: 1.81
  Docosahexaenoic acid (C22:cis[4,7,10,13,16,19]6), change of plasma metabolite: 2.52
  Eicosatrienoic acid, change of plasma metabolite: 3.13
  Glycerolphosphate, lipid fraction, change of plasma metabolite: 1.94
  Heptadecanoic acid (C17:0), change of plasma metabolite: 1.52
  Lignoceric acid (C24:0), change of plasma metabolite: 1.62
  Linoleic acid (C18:cis[9,12]2), change of plasma metabolite: 1.52
  Nervonic acid (C24:1), change of plasma metabolite: 1.88
  Palmitic acid (C16:0), change of plasma metabolite: 1.48
  Phosphatidylcholine (C18:0/C22:6), change of plasma metabolite: 1.83
  Phosphatidylcholine (C18:2, C20:4), change of plasma metabolite: 1.52
  Sphingomyelin (d18:1, C16:0), change of plasma metabolite: 1.46
  Tricosanoic acid (C23:0), change of plasma metabolite: 1.51
  alpha-Tocopherol, change of plasma metabolite: 2.61
  myo-Inositol-2-monophosphate, lipid fraction, change of plasma metabolite: 1.70
[1]; male rats, mh14 (day 14)
  1,2-Dioleoyl-sn-glycero-3-phosphatidyl-L-serine, change of plasma metabolite: 1.81
  4-Hydroxysphingosine, change of plasma metabolite: 2.56
  Arachidonic acid (C20:cis-[5,8,11,14]4), change of plasma metabolite: 1.64
  Behenic acid (C22:0), change of plasma metabolite: 1.77
  Ceramide (d18:1, C24:0), change of plasma metabolite: 1.55
  Ceramide (d18:1, C24:1), change of plasma metabolite: 1.48
  Cholesterol, change of plasma metabolite: 1.98
  Docosahexaenoic acid (C22:cis[4,7,10,13,16,19]6), change of plasma metabolite: 2.37
  Eicosatrienoic acid, change of plasma metabolite: 3.76
  Glycerolphosphate, lipid fraction, change of plasma metabolite: 1.93
  Heptadecanoic acid (C17:0), change of plasma metabolite: 1.54
  Lignoceric acid (C24:0), change of plasma metabolite: 1.71
  Linoleic acid (C18:cis[9,12]2), change of plasma metabolite: 1.46
  Nervonic acid (C24:1), change of plasma metabolite: 1.87
  Palmitic acid (C16:0), change of plasma metabolite: 1.49
  Phosphatidylcholine (C18:0/C22:6), change of plasma metabolite: 1.71
  Phosphatidylcholine (C18:2, C20:4), change of plasma metabolite: 1.46
  Sphingomyelin (d18:1, C16:0), change of plasma metabolite: 1.45
  Tricosanoic acid (C23:0), change of plasma metabolite: 1.74
  alpha-Tocopherol, change of plasma metabolite: 2.23
  myo-Inositol-2-monophosphate, lipid fraction, change of plasma metabolite: 2.40
[1]; male rats, mh28 (day 28)
  1,2-Dioleoyl-sn-glycero-3-phosphatidyl-L-serine, change of plasma metabolite: 1.84
  4-Hydroxysphingosine, change of plasma metabolite: 2.64
  Arachidonic acid (C20:cis-[5,8,11,14]4), change of plasma metabolite: 1.76
  Behenic acid (C22:0), change of plasma metabolite: 1.65
  Ceramide (d18:1, C24:0), change of plasma metabolite: 1.40
  Ceramide (d18:1, C24:1), change of plasma metabolite: 1.18
  Cholesterol, change of plasma metabolite: 2.03
  Docosahexaenoic acid (C22:cis[4,7,10,13,16,19]6), change of plasma metabolite: 2.02
  Eicosatrienoic acid, change of plasma metabolite: 3.77
  Glycerolphosphate, lipid fraction, change of plasma metabolite: 2.15
  Heptadecanoic acid (C17:0), change of plasma metabolite: 1.51
  Lignoceric acid (C24:0), change of plasma metabolite: 1.57
  Linoleic acid (C18:cis[9,12]2), change of plasma metabolite: 1.50
  Nervonic acid (C24:1), change of plasma metabolite: 1.97
  Palmitic acid (C16:0), change of plasma metabolite: 1.36
  Phosphatidylcholine (C18:0/C22:6), change of plasma metabolite: 1.32
  Phosphatidylcholine (C18:2, C20:4), change of plasma metabolite: 1.18
  Sphingomyelin (d18:1, C16:0), change of plasma metabolite: 1.39
  Tricosanoic acid (C23:0), change of plasma metabolite: 1.55
  alpha-Tocopherol, change of plasma metabolite: 2.15
  myo-Inositol-2-monophosphate, lipid fraction, change of plasma metabolite: 2.70
[2]; female rats, fh7 (day 7)
  1,2-Dioleoyl-sn-glycero-3-phosphatidyl-L-serine, change of plasma metabolite: 1.49
  4-Hydroxysphinganine, change of plasma metabolite: 1.98
  Arachidonic acid (C20:cis-[5,8,11,14]4), change of plasma metabolite: 1.85
  Behenic acid (C22:0), change of plasma metabolite: 1.52
  Ceramide (d18:1, C24:0), change of plasma metabolite: 1.85
  Cholesterol, change of plasma metabolite: 2.18
  Docosahexaenoic acid (C22:cis[4,7,10,13,16,19]6), change of plasma metabolite: 3.22
  Glycerol, lipid fraction, change of plasma metabolite: 1.89
  Glycerolphosphate, lipid fraction, change of plasma metabolite: 1.77
  Heptadecanoic acid (C17:0), change of plasma metabolite: 1.72
  ID28x493, change of plasma metabolite: 2.44
  Lignoceric acid (C24:0), change of plasma metabolite: 1.59
  Linoleic acid (C18:cis[9,12]2), change of plasma metabolite: 2.43
  Nervonic acid (C24:1), change of plasma metabolite: 1.54
  Palmitic acid (C16:0), change of plasma metabolite: 1.97
  Phosphate, lipid (Phospholipids), change of plasma metabolite: 1.37
  Stearic acid (C18:0), change of plasma metabolite: 1.60
  TAG No 1, change of plasma metabolite: 1.66
  Threonic acid, change of plasma metabolite: 1.92
  Tricosanoic acid (C23:0), change of plasma metabolite: 1.80
